Measurements as given in patent US11939351B2, “Amorphous mixture comprising a neutral mono- or oligosaccharide and an acidic non-carbohydrate component” (GLYCOM A/S, priority 2017, dated 2024).
Like-named read-outs stand apart in the source and are kept apart here.

How the values were obtained:
[1] = assay type: physicochemical
Source text: This means that an amorphous 2′-FL according to the present invention, the pH of the 5 w/w % aqueous solution of which is around 3.5-4.5, has a slightly shorter shelf-life than that for an amorphous 2′-FL having a pH of 4.5-5.8. […] In this regard it can be concluded that a fucosylated neutral HMO other than 2′-FL is hydrolytically as stable as a non-fucosylated neutral HMO.

[2] = Forced storage stability of 2′-FL and DFL mixture samples at 60° C. and 80° C., analysed by HPAEC (Example 2); assay type: physicochemical
Experimental: One gram of each sample, separately, was put into a 4 ml glass vial and closed with screw lid containing teflon […]. The 8-week storage sample was put into a 60° C. oven, followed by the 4-week and the 2-week samples 4 and 6 weeks later, respectively), so the incubation of all samples ended in the same time. Similar pattern of experimental design was followed with the samples to be measured at 80° C. (4-week, 2-week and 1-week samples). The samples were kept in a freezer until they were put into the oven at a given time. Standards were kept in a freezer until analysis. The stability samples and the standards were analysed by HPAEC.

[3] = in the acidic samples (pH = 4.5)
[4] = in the neutral sample (pH = 7.0)

Row | hydrolysis to fucose and lactose ([1]; at a pH around 4.0-4.5) | hydrolysis to fucose and lactose ([1]; at around a pH of 3.5) | preferred pH range in which no substantial hydrolysis and rearrangement occur ([2]; estimated from the Example 2 data) | hydrolysis (into fucose and lactose) [2, 3] | hydrolysis (into fucose and lactose) [2, 4] | hydrolytic stability [1] | SMILES
1 | still detectable | low degree of hydrolysis | 5.2-5.8 | slight hydrolysis | did not occur | – | C[C@@H]1O[C@@H](O[C@H]2[C@H](O[C@H]3[C@H](O)[C@@H](O)C(O)O[C@@H]3CO)O[C@H](CO)[C@H](O)[C@@H]2O)[C@@H](O)[C@H](O)[C@@H]1O (some centres unmarked) [2′-FL, 2′-fucosyllactose]
2 | – | – | – | did not undergo hydrolysis | did not undergo hydrolysis | hydrolytically stabile | C[C@@H]1O[C@@H](O[C@H]2[C@H](O[C@H]3[C@H](O[C@@H]4O[C@@H](C)[C@@H](O)[C@@H](O)[C@@H]4O)[C@@H](O)C(O)O[C@@H]3CO)O[C@H](CO)[C@H](O)[C@@H]2O)[C@@H](O)[C@H](O)[C@@H]1O (some centres unmarked) [DFL, difucosyllactose]
